In PMC8639922, “KSHV transactivator-derived small peptide traps coactivators to attenuate MYC and inhibits leukemia and lymphoma cell growth” (Communications Biology, 2021):
Square brackets hold non-standard residues; d marks the D form. Peptide text beside a SMILES is read from it. Orn = NCCC[C@H](N)C(=O)O; βAla = NCCC(=O)O

What was measured:
[1] = test system: BC-1; assay: Flow cytometry, cell proliferation (Ki67 staining); type: cell-based, human; details: BC-1, 24 h
Experimental: (§1) Leukoreduction system chambers (LRS) from healthy donors were purchased from Vitalant. Peripheral blood mononuclear cells (PBMCs) were prepared by a standard Ficoll gradient method. PBMCs along with THP-1 and BCBL-1 cell lines (2 × 10^6 cells/ml, 0.2 ml 10% FBS/RPMI/DMEM per well of a 96-well plate) were treated with various doses (0–256 μM) of either VGN50 peptide or control mutant peptide for 24 h. Cell death, apoptosis, and proliferation were analyzed by flow cytometry (BD Acuri) after intracellular staining with anti-humanKi67-Alexa488 (Biolegend, 1:100) along with the isotype control antibody, annexin-V-FITC with 7-AAD staining (Biolegend) according to the manufacture’s protocol, Live/dead Fixable Red Dead Cell staining kit (Invitrogen) according to the manufacture’s protocol, or MTT assay. Peptides were commercially synthesized (GenScript) with >90% purity with TFA removal. […]
(§2) Isotype control Anti-Ki67 antibody
(§3) S-Figure 3. Flow cytometry analyses […]
(§4) Repr esent at i ve FACS pl ot s wi t h ancest r y gat i ng st r at egy of Ki 67+ popul at i on f or
(§5) BCBL-1 and BC-1 cel l s t r eat ed wi t h PBS wi t h an i sot ype cont r ol ar e shown. Mean +/-SD of
(§6) Ki 67% of t ot al BCBL-1 and BC-1 cel l s anal yzed ar e shown i n Fi g. 2e.

[2] = test system: BCBL-1; assay: Flow cytometry, cell proliferation (Ki67 staining); type: cell-based, human; details: BCBL-1, 24 h
Experimental: as §1, §2, §3, §4, §5, §6

[3] = test system: 5 SWI/SNF components; assay: ELISA-based peptide binding assay, summary for all five proteins; details: biotin-conjugated peptide, same peptide concentrations
Experimental: Fig. 3 Effects of VGN50 on KSHV gene transcription and VGN50 binding with SWI/SNF components. a KSHV qRT-PCR array analysis was used to study effects of VGN50 on KSHV gene transcription in a genome-wide manner. Uninduced (−; no doxycycline added) or dox-induced (+; 1 μg/ml) cells were treated with VGN50 or the mutant peptide (Mut-P) at a concentration of 24 μM. Samples were collected at 24 h post-treatment. Expression in uninduced cells was set as 1 for each viral gene and expression shown as fold activation relative to no-Dox samples. Selected cellular genes were also included in the PCR array for comparison. 18S ribosomal RNA was used as an internal control. b KSHV protein expression. […] Peptide binding measured as OD values at 450 nm are shown. […]
To confirm the basis of the VGN50 action, the biochemical interactions between VGN50 and SWI/SNF proteins (i.e., putative VGN50 target molecules), were examined by ELISA-based binding assays using purified five individual SWI/SNF components prepared from baculovirus-infected Sf9 cells (Fig. 3d). Increasing concentrations of biotin-conjugated VGN50 or Mut-P were incubated in an ELISA plate coated with each SWI/SNF component, and the bound peptides were detected by HRP-streptavidin (Fig. 3e). […]

CC(C)C[C@H](NC(=O)CCNC(=O)[C@H](CCCNC(=N)N)NC(=O)[C@H](CCCNC(=N)N)NC(=O)[C@H](CCCNC(=N)N)NC(=O)[C@H](CCCN)NC(=O)[C@H](CCCNC(=N)N)NC(=O)[C@H](CCCNC(=N)N)NC(=O)[C@H](CCCCN)NC(=O)[C@H](CCCCN)NC(=O)[C@H](N)CCCNC(=N)N)C(=O)N[C@@H](CO)C(=O)N[C@@H](CO)C(=O)N[C@@H](C)C(=O)N[C@@H](C)C(=O)N[C@@H](C)C(=O)NCC(=O)N[C@@H](CC(C)C)C(=O)N[C@@H](Cc1ccc(O)cc1)C(=O)N[C@@H](CCC(N)=O)C(=O)N[C@@H](CC(C)C)C(=O)N[C@@H](CC(=O)O)C(=O)N[C@H](C(=O)O)[C@@H](C)O [Mt-P] (H-[dR]KKRR[Orn]RRR[βAla]LSSAAAGLYQLDT-OH; N-terminus and C-terminus assumed)
Ki67% ([1]; replicate 1): 43.3912% | Ki67% ([1]; replicate 2): 42.2259% | Ki67% ([1]; replicate 3): 43.3434% | Ki67% ([2]; replicate 1): 33.8765% | Ki67% ([2]; replicate 2): 32.9445% | Ki67% ([2]; replicate 3): 29.2345% | Binding to SWI/SNF components compared with VGN50 [3]: did not bind SWI/SNF components as much as VGN50
